According to patent publication US20150343016A1, “CHEMICAL ENTITIES AND THERAPEUTIC USES THEREOF” (The Regents of the University of Colorado, a body corporate, priority 2010, published 2015):

System: UM-SCC19 Head and Neck Cancer cell line
Assay: MTT assay, Bouvardin with ionizing radiation, UM-SCC19 (pre-treated)
Type: cell-based, human
Conditions: UM-SCC19 cells
Experimental: “Combination Index” computation. Combination Indices were calculated using CalcuSyn software (Biosoft), which uses the method of Chou and Talalay. This method first computes drug-induced effect using the Hill Equation: where E is the measured effect; C is the drug concentration; Emax is the full range of drug effect, usually at or near 100%; IC50 is the drug concentration producing the median effect of 50%; and n is the curve shape parameter describing the steepness of the concentration-effect relationship. The Chou and Talalay method then linearizes the Hill Equation by logarithmic transformation as: where fu is the fraction of cells left unaffected after drug exposure, fa is the fraction of cells affected by the exposure, C is the drug concentration used, Cm is the concentration to achieve the median effect, and n is the curve shape parameter. Cm and n are equivalent to IC50 and n, respectively, in the Hill Equation. The values of n (obtained from the slope), nlog(Cm) (obtained from the absolute value of the intercept), and, therefore, Cm are obtained by plotting log(fu−1−1) versus log(C). These numbers are then used to compute the Combination Index (CI) according to the formula: CI=(D)1/(Dx)1+(D)2/(Dx)2 (26). (Dx)1 and (Dx)2 are the doses required to achieve a given effect level for each treatment, i.e. a specified value of Fraction Affected or Fa. (D)1 and (D)2 are the doses of each treatment in a given combination which gives the same Fa.
The growth inhibitory effects of Bouvardin with ionizing radiation (IR) were evaluated using a modified tetrazolium salt (MTT) assay. In the MTT assay, 1,000 to 2,000 viable cells were plated in 100 uL of growth medium in 96-well plates (Corning, Ithaca, N.Y.). Following an overnight incubation, drug was added in varying concentrations and the plates were irradiated on the same day (co-treatment) or 24 hr later (pre-treatment) and incubated for 6 to 7 days. The tetrazolium salt was added at a concentration of 0.4 mg/mL to each well following the 6- to 7-day treatment. The plates were incubated with the salt for 4 hours at 37° C. At 4 hours, the medium was aspirated off, leaving the dark blue formazan product at the bottom of the wells. The reduced MTT product was solubilized by adding […] of 0.2 N HCl in 75% isopropanol, 23% MilliQ water to each well. Thorough mixing was done using a Titertek multichannel pipetman. The absorbency of each well was measured using an automated plate reader (Molecular Devices, Sunnyvale, Calif.). All experiments were done in triplicate.
MTT assays were used to determine the effect of Bouvardin (concentrations in uM) in combination with ionizing radiation (in Gy, X-axis). FIG. 14 depicts CI values for Bouvardin and radiation on 3 cell lines. Combination Index data from 3 different Head and Neck Cancer cell lines are shown. Black dashed lines represent a CI value of 1. CI values below 1 indicate synergy. 1586 and UM-SCC19 were pre-treated whereas HN31 was treated on the same day.

COc1ccc(C[C@H]2C(=O)N[C@H](C)C(=O)N(C)[C@@H]3C(=O)N(C)[C@@H](Cc4ccc(O)c(c4)Oc4ccc(cc4)[C@H]3O)C(=O)N[C@@H](C)C(=O)N[C@H](C)C(=O)N2C)cc1 (stereo in doubt) [Bouvardin, bouvardin]
Combination Index (Bouvardin 0.001 uM + 1 Gy IR): 13.885 | Fraction Affected (Bouvardin 0.001 uM + 1 Gy IR): 0.143 | Combination Index (Bouvardin 0.001 uM + 2 Gy IR): 2.245 | Fraction Affected (Bouvardin 0.001 uM + 2 Gy IR): 0.28 | Combination Index (Bouvardin 0.001 uM + 4 Gy IR): 1.023 | Fraction Affected (Bouvardin 0.001 uM + 4 Gy IR): 0.386 | Combination Index (Bouvardin 0.003 uM + 1 Gy IR): 5.143 | Fraction Affected (Bouvardin 0.003 uM + 1 Gy IR): 0.227 | Combination Index (Bouvardin 0.003 uM + 2 Gy IR): 1.22 | Fraction Affected (Bouvardin 0.003 uM + 2 Gy IR): 0.366 | Combination Index (Bouvardin 0.003 uM + 4 Gy IR): 0.627 | Fraction Affected (Bouvardin 0.003 uM + 4 Gy IR): 0.466 | Combination Index (Bouvardin 0.006 uM + 1 Gy IR): 1.696 | Fraction Affected (Bouvardin 0.006 uM + 1 Gy IR): 0.354 | Combination Index (Bouvardin 0.006 uM + 2 Gy IR): 0.762 | Fraction Affected (Bouvardin 0.006 uM + 2 Gy IR): 0.448 | Combination Index (Bouvardin 0.006 uM + 4 Gy IR): 0.82 | Fraction Affected (Bouvardin 0.006 uM + 4 Gy IR): 0.461 | Combination Index (Bouvardin 0.01 uM + 1 Gy IR): 1.561 | Fraction Affected (Bouvardin 0.01 uM + 1 Gy IR): 0.395 | Combination Index (Bouvardin 0.01 uM + 2 Gy IR): 0.694 | Fraction Affected (Bouvardin 0.01 uM + 2 Gy IR): 0.49 | Combination Index (Bouvardin 0.01 uM + 4 Gy IR): 0.619 | Fraction Affected (Bouvardin 0.01 uM + 4 Gy IR): 0.521 | Combination Index (Bouvardin 0.03 uM + 1 Gy IR): 1.414 | Fraction Affected (Bouvardin 0.03 uM + 1 Gy IR): 0.44 | Combination Index (Bouvardin 0.03 uM + 2 Gy IR): 0.777 | Fraction Affected (Bouvardin 0.03 uM + 2 Gy IR): 0.511 | Combination Index (Bouvardin 0.03 uM + 4 Gy IR): 0.848 | Fraction Affected (Bouvardin 0.03 uM + 4 Gy IR): 0.515 | Combination Index (Bouvardin 0.06 uM + 1 Gy IR): 1.587 | Fraction Affected (Bouvardin 0.06 uM + 1 Gy IR): 0.431 | Combination Index (Bouvardin 0.06 uM + 2 Gy IR): 1.482 | Fraction Affected (Bouvardin 0.06 uM + 2 Gy IR): 0.444 | Combination Index (Bouvardin 0.06 uM + 4 Gy IR): 1.01 | Fraction Affected (Bouvardin 0.06 uM + 4 Gy IR): 0.498 | Combination Index (Bouvardin 0.1 uM + 1 Gy IR): 2.102 | Fraction Affected (Bouvardin 0.1 uM + 1 Gy IR): 0.437 | Combination Index (Bouvardin 0.1 uM + 2 Gy IR): 1.027 | Fraction Affected (Bouvardin 0.1 uM + 2 Gy IR): 0.518 | Combination Index (Bouvardin 0.1 uM + 4 Gy IR): 1.691 | Fraction Affected (Bouvardin 0.1 uM + 4 Gy IR): 0.473 | Combination Index (Bouvardin 0.3 uM + 1 Gy IR): 1.313 | Fraction Affected (Bouvardin 0.3 uM + 1 Gy IR): 0.523 | Combination Index (Bouvardin 0.3 uM + 2 Gy IR): 1.347 | Fraction Affected (Bouvardin 0.3 uM + 2 Gy IR): 0.524 | Combination Index (Bouvardin 0.3 uM + 4 Gy IR): 1.052 | Fraction Affected (Bouvardin 0.3 uM + 4 Gy IR): 0.558 | Combination Index (Bouvardin 0.6 uM + 1 Gy IR): 1.704 | Fraction Affected (Bouvardin 0.6 uM + 1 Gy IR): 0.532 | Combination Index (Bouvardin 0.6 uM + 2 Gy IR): 1.546 | Fraction Affected (Bouvardin 0.6 uM + 2 Gy IR): 0.545 | Combination Index (Bouvardin 0.6 uM + 4 Gy IR): 1.251 | Fraction Affected (Bouvardin 0.6 uM + 4 Gy IR): 0.573 | Combination Index (Bouvardin 1 uM + 1 Gy IR): 13.885 | Fraction Affected (Bouvardin 1 uM + 1 Gy IR): 0.143 | Combination Index (Bouvardin 1 uM + 2 Gy IR): 2.245 | Fraction Affected (Bouvardin 1 uM + 2 Gy IR): 0.28 | Combination Index (Bouvardin 1 uM + 4 Gy IR): 1.023 | Fraction Affected (Bouvardin 1 uM + 4 Gy IR): 0.386
